ChEMBL document CHEMBL5154835, “Design, synthesis and biological evaluation of sulfonamides inhibitors of XPO1 displaying activity against multiple myeloma cells” (Eur J Med Chem, 2022)
Values belong to the compound of their own block, whether it stands above or below them. Calls of active or inactive are those of the source. The rule behind the calls is not given here.

Experiments:
MM1.S [1] = experiment: Antiproliferative activity against human MM1.S cells assessed as inhibition of cell growth incubated for 4 hrs by CCK-8 assay; type: functional, cell-based
[2] = AUC (0 to infinity) in Sprague-Dawley rat at 1 mg/kg, iv measured upto 8 hrs by LC-MS/MS analysis; type: ADME, organism-based; set-up: dose 1 mg/kg, time < 8 hrs, route iv; conditions: in vivo
MM1.S [3] = experiment: Induction of cell cycle arrest in human MM1.S cells assessed as p53-dependent accumulation of cells in G2 phase at 1000 nM incubated for 48 hrs by propidium iodide staining based flow cytometric analysis (reference value: 18.4%); type: functional
MM1.S [4] = experiment: Induction of cell cycle arrest in human MM1.S cells assessed as p53-dependent accumulation of cells in G2 phaseat 10000 nM incubated for 48 hrs by propidium iodide staining based flow cytometric analysis (reference value: 18.4%); type: functional
[5] = Clearance in Sprague-Dawley rat at 1 mg/kg, iv measured upto 8 hrs by LC-MS/MS analysis; type: ADME, organism-based; conditions: in vivo
MM1.S [6] = experiment: Induction of apoptosis in human MM1.S cells assessed as assessed as late apoptotic cells at 1000 nM measured after 48 hrs by annexin V-FITC/PI staining based flow cytometry analysis (Rvb=2.06%); type: functional
MM1.S [7] = experiment: Induction of apoptosis in human MM1.S cells assessed as assessed as necrotic cells at 1000 nM measured after 48 hrs by annexin V-FITC/PI staining based flow cytometry analysis (Rvb=7.60%); type: functional
[8] = AUC (0 to t) in Sprague-Dawley rat at 10 mg/kg, IG measured upto 8 hrs by LC-MS/MS analysis; type: ADME, organism-based; set-up: time < 8 hrs, dose 10 mg/kg, route ig; conditions: in vivo, po
MM1.S [9] = experiment: Induction of apoptosis in human MM1.S cells assessed as assessed as early apoptotic cells at 1000 nM measured after 48 hrs by annexin V-FITC/PI staining based flow cytometry analysis (Rvb=4.60%); type: functional
MM1.S [10] = experiment: Induction of cell cycle arrest in human MM1.S cells assessed as p53-dependent accumulation of cells in G2 phase at 5000 nM incubated for 48 hrs by propidium iodide staining based flow cytometric analysis (reference value: 18.4%); type: functional
MM1.S [11] = experiment: Induction of cell cycle arrest in human MM1.S cells assessed as accumulation at S phase at 1000 nM incubated for 48 hrs by propidium iodide staining based flow cytometric analysis (reference value: 21.8%); type: functional
MM1.S [12] = experiment: Induction of apoptosis in human MM1.S cells assessed as assessed as viable cells at 10000 nM measured after 48 hrs by annexin V-FITC/PI staining based flow cytometry analysis (Rvb=85.74%); type: functional; conditions: read-out: Activity
MM1.S [13] = experiment: Induction of apoptosis in human MM1.S cells assessed as increase in apoptosis rate at 10 uM measured after 48 hrs by annexin V-FITC/PI staining based flow cytometry analysis (Rvb=6.7%); type: functional
MM1.S [14] = experiment: Induction of cell cycle arrest in human MM1.S cells assessed as accumulation at S phase at 5000 nM incubated for 48 hrs by propidium iodide staining based flow cytometric analysis (reference value: 21.8%); type: functional
MM1.S [15] = experiment: Induction of cell cycle arrest in human MM1.S cells assessed as accumulation at S phase at 100 nM incubated for 48 hrs by propidium iodide staining based flow cytometric analysis (reference value: 21.8%); type: functional
MM1.S [16] = experiment: Induction of apoptosis in human MM1.S cells assessed as assessed as late apoptotic cells at 100 nM measured after 48 hrs by annexin V-FITC/PI staining based flow cytometry analysis (Rvb=2.06%); type: functional
[17] = target: Exportin-1 (Homo sapiens) (UniProt O14980); experiment: Inhibition of XPO1 in human MM1.S cells at 0.1 to 10 uM incubated for 2 hrs by confocal microscopic analysis; type: cell-based; conditions: dose 0.1-10 µM
YT = experiment: Antiproliferative activity against human YT cells assessed as inhibition of cell growth incubated for 4 hrs by CCK-8 assay; type: functional, cell-based
[18] = AUC (0 to infinity) in Sprague-Dawley rat at 10 mg/kg, IG measured upto 8 hrs by LC-MS/MS analysis; type: ADME, organism-based; set-up: dose 10 mg/kg, time < 8 hrs, route ig; conditions: in vivo, po
MM1.S [19] = experiment: Induction of cell cycle arrest in human MM1.S cells assessed as accumulation at G1 phase at 5000 nM incubated for 48 hrs by propidium iodide staining based flow cytometric analysis (reference value: 59.8%); type: functional
MM1.S [20] = experiment: Induction of cell cycle arrest in human MM1.S cells assessed as accumulation at S phase at 10000 nM incubated for 48 hrs by propidium iodide staining based flow cytometric analysis (reference value: 21.8%); type: functional
[21] = Tmax in Sprague-Dawley rat at 10 mg/kg, IG measured upto 8 hrs by LC-MS/MS analysis; type: ADME, organism-based; conditions: in vivo, po
[22] = Metabolic stability in rat plasma assessed as compound remaining measured upto 120 mins by LC/MS analysis; type: ADME, cell-free; conditions: read-out: Stability
[23] = Antiproliferative activity against human Mutu-1 cells assessed as inhibition of cell growth incubated for 4 hrs by CCK-8 assay; type: functional, cell-based; conditions: Mutu-1, 4 h
[24] = Half life in Sprague-Dawley rat at 1 mg/kg, iv measured upto 8 hrs by LC-MS/MS analysis; type: ADME, organism-based; conditions: in vivo
[25] = Cmax in Sprague-Dawley rat at 1 mg/kg, iv measured upto 8 hrs by LC-MS/MS analysis; type: ADME, organism-based; set-up: dose 1 mg/kg, time < 8 hrs, route iv; conditions: in vivo
[26] = Antiproliferative activity against human JB-6 cells assessed as inhibition of cell growth incubated for 4 hrs by CCK-8 assay; type: functional, cell-based; conditions: JB6, 4 h
MM1.S [27] = experiment: Induction of apoptosis in human MM1.S cells assessed as assessed as late apoptotic cells at 10000 nM measured after 48 hrs by annexin V-FITC/PI staining based flow cytometry analysis (Rvb=2.06%); type: functional
MM1.S [28] = experiment: Induction of cell cycle arrest in human MM1.S cells assessed as p53-dependent accumulation of cells in G2 phase at 100 nM incubated for 48 hrs by propidium iodide staining based flow cytometric analysis (reference value: 18.4%); type: functional
[29] = Tmax in Sprague-Dawley rat at 1 mg/kg, iv measured upto 8 hrs by LC-MS/MS analysis; type: ADME, organism-based; conditions: in vivo
MM1.S [30] = experiment: Induction of cell cycle arrest in human MM1.S cells assessed as accumulation at G1 phase at 100 nM incubated for 48 hrs by propidium iodide staining based flow cytometric analysis (reference value: 59.8%); type: functional
MM1.S [31] = experiment: Induction of apoptosis in human MM1.S cells assessed as assessed as viable cells at 100 nM measured after 48 hrs by annexin V-FITC/PI staining based flow cytometry analysis (Rvb=85.74%); type: functional; conditions: read-out: Activity
[32] = Clearance in Sprague-Dawley rat at 10 mg/kg, IG measured upto 8 hrs by LC-MS/MS analysis; type: ADME, organism-based; conditions: in vivo, po
[33] = Metabolic stability in rat liver microsomes assessed as compound remaining preincubated for 5 mins measured upto 60 mins in presence of NADPH by LC/MS analysis; type: ADME, Microsome; conditions: time < 65 min, read-out: Stability
[34] = Cmax in Sprague-Dawley rat at 10 mg/kg, IG measured upto 8 hrs by LC-MS/MS analysis; type: ADME, organism-based; set-up: dose 10 mg/kg, time < 8 hrs, route ig; conditions: in vivo, po
MM1.S [35] = experiment: Induction of apoptosis in human MM1.S cells assessed as assessed as viable cells at 1000 nM measured after 48 hrs by annexin V-FITC/PI staining based flow cytometry analysis (Rvb=85.74%); type: functional; conditions: read-out: Activity
[36] = Half life in Sprague-Dawley rat at 10 mg/kg, IG measured upto 8 hrs by LC-MS/MS analysis; type: ADME, organism-based; conditions: in vivo, po
[37] = Antiproliferative activity against human VAL cells assessed as inhibition of cell growth incubated for 4 hrs by CCK-8 assay; type: functional, cell-based
MM1.S [38] = experiment: Induction of cell cycle arrest in human MM1.S cells assessed as accumulation at G1 phase at 10000 nM incubated for 48 hrs by propidium iodide staining based flow cytometric analysis (reference value: 59.8%); type: functional
MM1.S [39] = experiment: Induction of apoptosis in human MM1.S cells assessed as assessed as early apoptotic cells at 10000 nM measured after 48 hrs by annexin V-FITC/PI staining based flow cytometry analysis (Rvb=4.60%); type: functional
H9 = experiment: Antiproliferative activity against human H9 cells assessed as inhibition of cell growth incubated for 4 hrs by CCK-8 assay; type: functional, cell-based; conditions: H9, 4 h
[40] = Bioavailability in Sprague-Dawley rat at 10 mg/kg, IG measured upto 8 hrs by LC-MS/MS analysis; type: ADME, organism-based; conditions: in vivo, po
MM1.S [41] = experiment: Induction of cell cycle arrest in human MM1.S cells assessed as accumulation at G1 phase at 1000 nM incubated for 48 hrs by propidium iodide staining based flow cytometric analysis (reference value: 59.8%); type: functional
[42] = AUC (0 to t) in Sprague-Dawley rat at 1 mg/kg, iv measured upto 8 hrs by LC-MS/MS analysis; type: ADME, organism-based; set-up: time < 8 hrs, dose 1 mg/kg, route iv; conditions: in vivo
[43] = Antiproliferative activity against human MINO cells assessed as inhibition of cell growth incubated for 4 hrs by CCK-8 assay; type: functional, cell-based
MM1.S [44] = experiment: Induction of apoptosis in human MM1.S cells assessed as assessed as necrotic cells at 10000 nM measured after 48 hrs by annexin V-FITC/PI staining based flow cytometry analysis (Rvb=7.60%); type: functional
[45] = Antiproliferative activity against human Rael cells assessed as inhibition of cell growth incubated for 4 hrs by CCK-8 assay; type: functional, cell-based
MM1.S [46] = experiment: Induction of apoptosis in human MM1.S cells assessed as assessed as necrotic cells at 100 nM measured after 48 hrs by annexin V-FITC/PI staining based flow cytometry analysis (Rvb=7.60%); type: functional
NAMALVA = experiment: Antiproliferative activity against human NAMALVA cells assessed as inhibition of cell growth incubated for 4 hrs by CCK-8 assay; type: functional, cell-based
MM1.S [47] = experiment: Induction of apoptosis in human MM1.S cells assessed as assessed as early apoptotic cells at 100 nM measured after 48 hrs by annexin V-FITC/PI staining based flow cytometry analysis (Rvb=4.60%); type: functional

Exportin-1 (Homo sapiens), sequence (O14980 whole entry): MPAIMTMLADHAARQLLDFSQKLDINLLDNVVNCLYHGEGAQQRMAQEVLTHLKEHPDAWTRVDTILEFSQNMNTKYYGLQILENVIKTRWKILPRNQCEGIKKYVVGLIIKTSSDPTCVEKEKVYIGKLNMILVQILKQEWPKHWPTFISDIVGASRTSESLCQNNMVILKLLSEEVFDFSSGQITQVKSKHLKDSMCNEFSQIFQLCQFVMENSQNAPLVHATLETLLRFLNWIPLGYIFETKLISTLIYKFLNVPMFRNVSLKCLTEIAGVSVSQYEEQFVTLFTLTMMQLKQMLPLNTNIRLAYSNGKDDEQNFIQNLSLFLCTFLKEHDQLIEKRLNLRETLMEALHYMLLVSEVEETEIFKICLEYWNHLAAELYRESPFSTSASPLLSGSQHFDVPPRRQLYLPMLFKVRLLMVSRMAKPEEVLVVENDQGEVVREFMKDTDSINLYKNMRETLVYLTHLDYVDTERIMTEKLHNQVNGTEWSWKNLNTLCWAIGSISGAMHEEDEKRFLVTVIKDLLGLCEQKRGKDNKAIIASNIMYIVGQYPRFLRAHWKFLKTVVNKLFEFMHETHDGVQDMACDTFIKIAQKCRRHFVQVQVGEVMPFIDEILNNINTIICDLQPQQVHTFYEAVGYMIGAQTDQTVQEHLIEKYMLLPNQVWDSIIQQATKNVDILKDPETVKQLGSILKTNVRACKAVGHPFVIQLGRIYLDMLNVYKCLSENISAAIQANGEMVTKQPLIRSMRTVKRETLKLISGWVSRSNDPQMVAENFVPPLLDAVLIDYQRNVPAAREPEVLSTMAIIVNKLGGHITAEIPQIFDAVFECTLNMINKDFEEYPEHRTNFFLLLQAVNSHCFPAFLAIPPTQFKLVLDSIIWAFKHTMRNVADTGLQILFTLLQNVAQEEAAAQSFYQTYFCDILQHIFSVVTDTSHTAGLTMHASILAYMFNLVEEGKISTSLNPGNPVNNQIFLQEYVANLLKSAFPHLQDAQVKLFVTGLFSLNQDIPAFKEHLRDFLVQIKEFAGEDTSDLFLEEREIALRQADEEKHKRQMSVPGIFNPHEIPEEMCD

Compound: NC(=O)/C(=C/n1cc(Cl)c(-c2cc(C(F)(F)F)cc(C(F)(F)F)c2)n1)c1cncnc1
IC50 (MM1.S [1]): 2240 nM

Compound: NC(=O)/C(=C/n1cnc(-c2cc(C(F)(F)F)cc(C(F)(F)F)c2)n1)c1cc(F)c(F)c(F)c1
IC50 (MM1.S [1]): 2430 nM

Compound: CS(=O)(=O)Nc1ccc(/C(=C\n2cnc(-c3cc(C(F)(F)F)cc(C(F)(F)F)c3)n2)C(N)=O)cc1
AUC(0-inf) [2]: 1790 ng·h/mL
Activity (MM1.S [3]): 33.4%
Activity (MM1.S [4]): 36.4%
clearance [5]: 9.42 mL/min/kg
Activity (MM1.S [6]): 20.49%
Activity (MM1.S [7]): 6.61%
AUC(0-t) at 8 h [8]: 5770 ng·h/mL
Activity (MM1.S [9]): 26.42%
Activity (MM1.S [10]): 37.3%
Activity (MM1.S [11]): 18.3%
viability at 10 µM (MM1.S [12]): 28%
Activity (MM1.S [13]): 64.7%
Activity (MM1.S [14]): 10.2%
Activity (MM1.S [15]): 15.4%
Activity (MM1.S [16]): 6.35%
inhibition [17]: Active
IC50 (YT): 75.4 nM
AUC(0-inf) [18]: 6390 ng·h/mL
Activity (MM1.S [19]): 52.6%
Activity (MM1.S [20]): 11.5%
Tmax [21]: 2.17 h
remaining at 2 h [22]: 80%
IC50 [23]: 158 nM
half-life [24]: 2.32 h
Cmax [25]: 1240 ng/mL
IC50 [26]: 154 nM
Activity (MM1.S [27]): 37.33%
Activity (MM1.S [28]): 21.3%
Tmax [29]: 4.8 min
Activity (MM1.S [30]): 63.4%
viability at 0.1 µM (MM1.S [31]): 75.4%
CL/F [32]: 27.3 mL/min/kg
remaining at 1 h [33]: 85%
Cmax [34]: 1390 ng/mL
viability at 1 µM (MM1.S [35]): 46.5%
half-life [36]: 2.12 h
IC50 [37]: 189 nM
Activity (MM1.S [38]): 52.1%
Activity (MM1.S [39]): 27.36%
IC50 (H9): 101 nM
bioavailability [40]: 34.6%
IC50 (MM1.S [1]): 24 nM
Activity (MM1.S [41]): 48.3%
AUC(0-t) at 8 h [42]: 1670 ng·h/mL
IC50 [43]: 80.2 nM
Activity (MM1.S [44]): 7.34%
IC50 [45]: 202 nM
Activity (MM1.S [46]): 6.94%
IC50 (NAMALVA): 77.7 nM
Activity (MM1.S [47]): 11.27%

Compound: NC(=O)/C(=C/n1cnc(-c2cc(C(F)(F)F)cc(C(F)(F)F)c2)n1)c1ccc(NS(=O)(=O)c2ccccc2)cc1
IC50 (MM1.S [1]): 337 nM

Compound: NC(=O)/C(=C/n1cnc(-c2cc(C(F)(F)F)cc(C(F)(F)F)c2)n1)c1ccc(NS(=O)(=O)C2CCCCC2)cc1
IC50 (MM1.S [1]): 1270 nM

Other lines, results leading:

IC50 (MM1.S [1]): 363 nM
Compound: NC(=O)/C(=C/n1cnc(-c2cc(C(F)(F)F)cc(C(F)(F)F)c2)n1)c1ccc(C(F)(F)F)nc1

IC50 (MM1.S [1]): 359 nM
Compound: NC(=O)/C(=C/n1cnc(-c2cc(C(F)(F)F)cc(C(F)(F)F)c2)n1)c1cccnc1F
